The results in this text go back to ChEMBL document CHEMBL2440075, “In vitro structure-activity relationships of aplysinopsin analogs and their in vivo evaluation in the chick anxiety-depression model” (Bioorg Med Chem, 2013).

Structures are written as SMILES.

The target in test [1] is 5-hydroxytryptamine receptor 4 (Homo sapiens, UniProt Q13639). Kind of test: Displacement of [3H]GR113808 from human recombinant 5HT4 receptor. Background: In a radioligand displacement assay an active substance lowers the binding of a labelled ligand.
Chain of 5-hydroxytryptamine receptor 4 (Q13639 whole entry): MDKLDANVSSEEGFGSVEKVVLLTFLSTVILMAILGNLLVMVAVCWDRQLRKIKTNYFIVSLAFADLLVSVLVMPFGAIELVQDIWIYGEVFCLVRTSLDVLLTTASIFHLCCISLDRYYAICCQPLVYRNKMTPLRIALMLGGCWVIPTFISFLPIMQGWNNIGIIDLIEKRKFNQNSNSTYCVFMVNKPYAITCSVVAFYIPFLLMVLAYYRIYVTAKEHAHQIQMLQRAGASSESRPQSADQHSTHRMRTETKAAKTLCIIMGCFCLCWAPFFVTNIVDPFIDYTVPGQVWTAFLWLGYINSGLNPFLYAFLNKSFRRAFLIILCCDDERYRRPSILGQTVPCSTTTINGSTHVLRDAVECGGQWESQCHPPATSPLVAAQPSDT
Test [2] has as its target 5-hydroxytryptamine receptor 1E (Homo sapiens, UniProt P28566). Kind of test: Displacement of [3H]5-HT from human recombinant 5HT1E receptor stably expressed in HEK cells. It counts as cell-based, HEK293.
For test [3], the target named is 5-hydroxytryptamine receptor 2B (Homo sapiens, UniProt P41595). Kind of test: Displacement of [3H]LSD from human recombinant 5HT2B receptor stably expressed in HEK cells. It counts as cell-based, HEK293.
Chain of 5-hydroxytryptamine receptor 2B (P41595 whole entry): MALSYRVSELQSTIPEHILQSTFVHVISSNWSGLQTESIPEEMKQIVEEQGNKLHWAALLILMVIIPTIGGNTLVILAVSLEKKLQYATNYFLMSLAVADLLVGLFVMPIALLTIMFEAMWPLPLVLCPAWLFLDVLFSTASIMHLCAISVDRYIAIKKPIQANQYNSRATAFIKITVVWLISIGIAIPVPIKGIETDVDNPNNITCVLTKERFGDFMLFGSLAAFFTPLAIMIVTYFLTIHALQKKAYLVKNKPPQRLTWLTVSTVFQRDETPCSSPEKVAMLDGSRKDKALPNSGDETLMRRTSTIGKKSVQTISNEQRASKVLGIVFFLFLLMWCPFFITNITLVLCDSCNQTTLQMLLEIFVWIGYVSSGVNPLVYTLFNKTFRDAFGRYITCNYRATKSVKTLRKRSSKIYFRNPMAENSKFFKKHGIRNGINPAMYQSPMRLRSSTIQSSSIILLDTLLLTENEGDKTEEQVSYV
In test [4] the target is T1, 5-hydroxytryptamine receptor 2C (Homo sapiens, UniProt P28335).
T1 sequence (P28335 whole entry): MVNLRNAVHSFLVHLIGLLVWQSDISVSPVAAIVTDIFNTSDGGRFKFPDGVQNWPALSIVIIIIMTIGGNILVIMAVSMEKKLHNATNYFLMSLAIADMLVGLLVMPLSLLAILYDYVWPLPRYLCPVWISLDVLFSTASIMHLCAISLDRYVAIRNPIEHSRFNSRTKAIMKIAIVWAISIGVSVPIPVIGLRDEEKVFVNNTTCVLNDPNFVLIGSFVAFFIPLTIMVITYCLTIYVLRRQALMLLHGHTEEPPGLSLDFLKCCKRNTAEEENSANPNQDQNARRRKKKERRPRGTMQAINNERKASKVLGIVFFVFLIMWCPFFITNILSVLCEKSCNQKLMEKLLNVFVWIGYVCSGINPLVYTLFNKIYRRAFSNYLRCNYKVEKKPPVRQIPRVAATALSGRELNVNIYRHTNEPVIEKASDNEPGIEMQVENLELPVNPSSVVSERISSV
Kind of test: Displacement of [3H]mesulergine from human recombinant 5HT2C receptor expressed in Flp-IN HEK cells. Type of test: cell-based, HEK293.

Test [5] addresses T2, 5-hydroxytryptamine receptor 1A (Homo sapiens, UniProt P08908).
T2 sequence (P08908 whole entry): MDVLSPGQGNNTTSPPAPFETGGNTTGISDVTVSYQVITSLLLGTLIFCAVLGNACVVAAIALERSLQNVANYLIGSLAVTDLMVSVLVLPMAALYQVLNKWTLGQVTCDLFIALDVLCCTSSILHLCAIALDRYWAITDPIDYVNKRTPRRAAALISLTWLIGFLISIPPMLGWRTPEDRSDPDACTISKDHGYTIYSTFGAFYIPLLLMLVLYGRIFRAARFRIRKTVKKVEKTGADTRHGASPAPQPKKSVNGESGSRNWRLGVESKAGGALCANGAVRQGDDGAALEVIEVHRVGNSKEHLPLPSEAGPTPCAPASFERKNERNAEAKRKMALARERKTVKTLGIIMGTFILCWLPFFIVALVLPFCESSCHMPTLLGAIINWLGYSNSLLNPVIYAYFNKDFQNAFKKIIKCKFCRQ
Kind of test: Displacement of [3H]way100635 from human recombinant 5HT1A receptor stably expressed in CHO cells. It counts as cell-based.

The target of test [6] is 5-hydroxytryptamine receptor 2A (Rattus norvegicus, UniProt P14842). Kind of test: Displacement of [3H]ketanserin from rat 5HT2A receptor stably expressed in 3T3 cells. Type of test: cell-based.
Chain of 5-hydroxytryptamine receptor 2A (P14842 whole entry): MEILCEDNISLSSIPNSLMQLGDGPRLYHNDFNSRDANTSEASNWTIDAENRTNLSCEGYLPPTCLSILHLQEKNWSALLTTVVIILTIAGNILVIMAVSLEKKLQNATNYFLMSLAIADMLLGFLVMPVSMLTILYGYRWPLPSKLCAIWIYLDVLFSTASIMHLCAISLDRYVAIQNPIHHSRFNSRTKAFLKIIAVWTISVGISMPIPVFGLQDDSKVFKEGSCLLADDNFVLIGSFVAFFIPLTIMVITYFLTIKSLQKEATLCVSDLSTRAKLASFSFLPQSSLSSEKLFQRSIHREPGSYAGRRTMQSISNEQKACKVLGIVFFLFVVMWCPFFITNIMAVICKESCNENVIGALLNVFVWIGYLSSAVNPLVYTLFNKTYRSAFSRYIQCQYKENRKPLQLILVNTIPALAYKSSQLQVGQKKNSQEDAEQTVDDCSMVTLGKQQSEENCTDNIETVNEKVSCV
Test [7] deals with 5-hydroxytryptamine receptor 5A (Homo sapiens, UniProt P47898). Kind of test: Displacement of [3H]LSD from human recombinant 5HT5A receptor expressed in Flp-In CHO cells. It counts as cell-based.
Chain of 5-hydroxytryptamine receptor 5A (P47898 whole entry): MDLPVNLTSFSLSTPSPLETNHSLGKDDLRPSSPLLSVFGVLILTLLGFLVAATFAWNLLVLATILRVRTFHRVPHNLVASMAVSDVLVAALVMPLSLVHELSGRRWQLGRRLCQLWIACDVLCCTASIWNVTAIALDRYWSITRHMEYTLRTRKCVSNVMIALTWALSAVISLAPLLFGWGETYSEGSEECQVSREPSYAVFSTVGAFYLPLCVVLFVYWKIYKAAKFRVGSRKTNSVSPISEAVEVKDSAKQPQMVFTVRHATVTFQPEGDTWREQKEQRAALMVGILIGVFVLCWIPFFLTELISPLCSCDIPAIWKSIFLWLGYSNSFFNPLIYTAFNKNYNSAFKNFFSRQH

Chain of 5-hydroxytryptamine receptor 1E (P28566 whole entry): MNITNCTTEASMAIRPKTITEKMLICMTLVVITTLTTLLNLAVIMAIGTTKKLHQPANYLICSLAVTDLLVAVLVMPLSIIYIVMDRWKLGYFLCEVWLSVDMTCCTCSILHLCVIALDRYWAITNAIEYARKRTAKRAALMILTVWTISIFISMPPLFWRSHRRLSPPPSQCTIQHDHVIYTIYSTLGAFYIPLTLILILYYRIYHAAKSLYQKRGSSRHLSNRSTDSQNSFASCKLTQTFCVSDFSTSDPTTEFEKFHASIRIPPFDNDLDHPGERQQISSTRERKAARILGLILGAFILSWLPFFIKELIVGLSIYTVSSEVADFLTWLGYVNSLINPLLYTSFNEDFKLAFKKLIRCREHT

Take `O=C1NC(=S)N/C1=C\c1c[nH]c2c(Br)cccc12`: the Ki in test [1] is 2.21 µM.

For `C/N=C1/N/C(=C/c2c[nH]c3ccccc23)C(=O)N1C`, the Ki is greater than 10 µM in test [2], 5.05 µM in test [3] and 10 µM in test [4].

On to `O=C1NC(=S)N/C1=C\c1c[nH]c2ccc(Br)cc12`, for which the Ki was found to be 2.75 µM in test [5], 1.68 µM in test [3] and 4.35 µM in test [4].

For `CSC1=NC(=O)/C(=C/c2c[nH]c3c(Br)cccc23)N1`, the Ki in test [1] amounted to 2.35 µM; in test [3], 0.993 µM.

Regarding `C/N=C1\NC(=O)/C(=C\c2c[nH]c3ccccc23)N1C` [ISOPLYSIN A], the inhibition constant (Ki) in test [3] was found to be 0.716 µM; in test [4], 2.35 µM.

`C/N=C1/N/C(=C/c2c[nH]c3c(Br)cccc23)C(=O)N1C`: the Ki in test [2] was greater than 10 µM; in test [3], 0.839 µM; in test [4], 10 µM.

On to `N=C1NC(=O)/C(=C\c2c[nH]c3cc(Br)ccc23)N1`, for which the Ki was greater than 10 µM in test [2]; 3.13 µM in test [6]; 0.184 µM in test [7]; 0.269 µM in test [3]; 0.201 µM in test [4].

Take `CN1C(=N)NC(=O)/C1=C\c1c[nH]c2ccc(Br)cc12`: the Ki is 3.21 µM in test [5], greater than 10 µM in test [2], 0.852 µM in test [3] and 2.45 µM in test [4].

As to `CN1C(=N)NC(=O)/C1=C\c1c[nH]c2c(Br)cccc12`, the Ki in test [2] was greater than 10 µM; in test [6] it was greater than 10 µM; in test [7], 1.32 µM; in test [3] it was 1.42 µM; in test [4], 4.13 µM.

With `C/N=C1/N/C(=C/c2c[nH]c3cc(Br)ccc23)C(=O)N1C`, the figures for the Ki in test [2], in test [3] and in test [4] were greater than 10 µM, 1.27 µM and 10 µM, respectively.

Turning to `C/N=C1\N(C)C(=O)/C(=C\c2c[nH]c3cc(Br)ccc23)N1C`, the Ki in test [5] is greater than 10 µM; in test [7], 4.68 µM; in test [3] it was 2.47 µM; in test [4] it was 1.24 µM.

Consider `C/N=C1\NC(=O)/C(=C\c2c[nH]c3cc(Br)ccc23)N1C`, for which the inhibition constant Ki was determined as 0.489 µM in test [3] and 2.28 µM in test [4].

Regarding `N=C1NC(=O)/C(=C\c2c[nH]c3ccccc23)N1`, the Ki in test [6] came out at 1.17 µM; in test [7] it was 0.101 µM; in test [3], 0.232 µM; in test [4], 0.349 µM.

For the compound `CN1C(=N)N/C(=C/c2c[nH]c3cc(Br)ccc23)C1=O`, the Ki is greater than 10 µM in test [5]; 4.16 µM in test [6]; 5.36 µM in test [7]; 0.19 µM in test [3]; 1.92 µM in test [4].

On to `CN1C(=N)N/C(=C/c2c[nH]c3c(Br)cccc23)C1=O`, for which the Ki in test [5] was 7.27 µM; in test [2] it was greater than 10 µM; in test [7], 1.55 µM; in test [3], 0.593 µM; in test [4], 10 µM.

With `O=C1NC(=S)N/C1=C\c1c[nH]c2cc(Br)ccc12`, the inhibitory constant (Ki) in test [3] stood at 2.71 µM.

Consider `CN1C(=N)N/C(=C/c2c[nH]c3ccccc23)C1=O`, for which the results for the Ki in test [2], in test [3] and in test [4] were greater than 10 µM, 1.28 µM and 10 µM, respectively.

For the compound `CN1C(=N)N/C(=C/c2c[nH]c3cccc(Br)c23)C1=O`, the inhibitory constant (Ki) stood at 3.44 µM in test [5]; 8.67 µM in test [6]; 1.28 µM in test [7]; 0.228 µM in test [3]; 1.7 µM in test [4].

As for `CN1C(=N)NC(=O)/C1=C\c1c[nH]c2ccccc12`, the Ki in test [3] is 0.964 µM; in test [4], 4.78 µM.

`CN1C(=N)N(C)/C(=C/c2c[nH]c3cc(Br)ccc23)C1=O`: the Ki was greater than 10 µM in test [5], 9.62 µM in test [7], 2.67 µM in test [3] and 1.7 µM in test [4].

As for `N=C1NC(=O)/C(=C\c2c[nH]c3cccc(Br)c23)N1`, the Ki in test [6] was found to be 4.62 µM; in test [7], 0.123 µM; in test [3], 0.447 µM; in test [4] it was 0.604 µM.

For `CN1C(=N)NC(=O)/C1=C\c1c[nH]c2cc(Br)ccc12`, the figures for the Ki in test [3] and in test [4] were 1.38 µM and 3.88 µM, respectively.

What is called Ki is the dissociation constant of the complex between target and ligand, obtained from inhibition or displacement.
